Results reported in patent publication US20230114728A1 (Venatorx Pharmaceuticals, Inc., priority 2019, published 2023).
Values after ≈ are worked out from the molar mass of the structure shown.

Key:
[1] = Bocillin-FL fluorescence polarization competition binding assay, A. baumannii PBP3; settings: fluorescence polarization competition binding assay using Bocillin-FL; column 3; read-out: 4. baumannii PBP1a Potency
Procedure, shortened: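 Fluorescence polarization (ex 490/em 520 nm) competition of inhibitors against Bocillin-FL at 0.1 μM, read up to 60 min. Final PBP levels: E. coli PBP3 1.5 μM; A. baumannii PBP2 2.5 μM, PBP3 0.2 μM in Tris pH 8.0/NaCl/glycerol/Tween 20; N. gonorrhoeae PBP2 […] in Hepes pH 8.0/NaCl/glycerol. EC50 = concentration halving PBP-bound Bocillin-FL.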

[2] = tested on: N. gonorrhoeae WHO G; experiment: Liquid broth MIC in Fastidious broth; format: cell-based; settings: Neisseria gonorrhoeae; N. gonorrhoeae strain WHO G; Fastidious broth; read-out: Minimum Inhibitory Concentration, N. gonorrhoeae WHO G
Procedure, shortened: (§1)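 Colonies were swabbed from chocolate agar after 24 h growth and standardised by optical density at 600 nm. Compounds were serially diluted twofold in Fastidious broth, and bacteria added to give 5×10^5 CFU/mL. After about 24 h at 36 °C in 5% CO2, the lowest concentration allowing under 10% growth was taken as MIC.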

[3] = tested on: N. gonorrhoeae H041; experiment: Liquid broth MIC in Fastidious broth; format: cell-based; settings: Neisseria gonorrhoeae, H041, read-out: Minimum Inhibitory Concentration, N. gonorrhoeae H041
Procedure, shortened: (§2)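 MIC = lowest concentration giving <10% growth relative to untreated wells, scored by eye after ~24 h at 36 °C, 5% CO2. Strains carry mosaic PBP2; inoculum 5×10^5 CFU/mL in Fastidious broth with 2-fold serial compound dilutions.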

[4] = tested on: N. gonorrhoeae WHO K; experiment: Liquid broth MIC in Fastidious broth; format: cell-based; settings: Neisseria gonorrhoeae, read-out: Minimum Inhibitory Concentration, N. gonorrhoeae WHO K
Procedure, shortened: as §2

[5] = tested on: N. gonorrhoeae FA1090; experiment: Liquid broth MIC in Fastidious broth; format: cell-based; settings: Neisseria gonorrhoeae; N. gonorrhoeae strain FA1090; Fastidious broth; read-out: Minimum Inhibitory Concentration, N. gonorrhoeae FA1090
Procedure, shortened: as §1

[6] = tested on: N. gonorrhoeae WHO L; experiment: Liquid broth MIC in Fastidious broth; format: cell-based; settings: Neisseria gonorrhoeae; N. gonorrhoeae strain WHO L; Fastidious broth; read-out: Minimum Inhibitory Concentration, N. gonorrhoeae WHO L
Procedure, shortened: as §1

[7] = tested on: N. gonorrhoeae ATCC 49226; experiment: Liquid broth MIC in Fastidious broth; format: cell-based; settings: Neisseria gonorrhoeae, ATCC49226; N. gonorrhoeae strain ATCC 49226; Fastidious broth; read-out: Minimum Inhibitory Concentration, N. gonorrhoeae ATCC 49226
Procedure, shortened: as §1

[8] = tested on: N. gonorrhoeae WHO Z; experiment: Liquid broth MIC in Fastidious broth; format: cell-based; settings: Neisseria gonorrhoeae, read-out: Minimum Inhibitory Concentration, N. gonorrhoeae WHO Z
Procedure, shortened: as §2

SMILES | EC50 [1] | MIC [2] | MIC [3] | MIC [4] | MIC [5] | MIC [6] | MIC [7] | MIC [8]
NC(C(=O)N[C@H]1Cc2ccc(F)c(C(=O)O)c2OB1O)c1c(F)cc(O)c(O)c1Cl (stereo partly drawn) [Example 25, (3R)-3-(2-amino-2-(2-chloro-6-fluoro-3,4-dihydroxyphenyl)acetamido)-7-fluoro-2-hydroxy-3,4-dihydro-2H-benzo[e][1,2]oxaborinine-8-carboxylic acid] | > 100 µM | > 64 µg/mL | > 64 µg/mL | > 64 µg/mL | > 64 µg/mL | > 64 µg/mL | > 64 µg/mL | 
O=C(Nc1ccc(O)c(O)c1Cl)NC(C(=O)N[C@H]1Cc2ccc(F)c(C(=O)O)c2OB1O)c1ncc(O)cc1F (stereo partly drawn) [Example 9, (3R)-3-(2-(3-(2-chloro-3,4-dihydroxyphenyl)ureido)-2-(3-fluoro-5-hydroxypyridin-2-yl)acetamido)-7-fluoro-2-hydroxy-3,4-dihydro-2H-benzo[e][1,2]oxaborinine-8-carboxylic acid] | 30 to 100 µM | > 64 µg/mL | > 64 µg/mL | > 64 µg/mL | 16 to 32 µg/mL (≈ 27.6 to 55.3 µM) | > 64 µg/mL | > 64 µg/mL | 
O=C(O)c1ccc(C(NC(=O)N2CCN(CCNC(=O)c3ccc(O)c(O)c3Cl)C(=O)C2=O)C(=O)N[C@H]2Cc3ccc(F)c(C(=O)O)c3OB2O)cc1F (stereo partly drawn) [Example 11, (3R)-3-(2-(4-carboxy-3-fluorophenyl)-2-(4-(2-(2-chloro-3,4-dihydroxybenzamido)ethyl)-2,3-dioxopiperazine-1-carboxamido)acetamido)-7-fluoro-2-hydroxy-3,4-dihydro-2H-benzo[e][1,2]oxaborinine-8-carboxylic acid] | 10 to 30 µM | 4 to 8 µg/mL (≈ 5.17 to 10.3 µM) | > 64 µg/mL | > 64 µg/mL | 1 to 2 µg/mL (≈ 1.29 to 2.58 µM) | > 64 µg/mL | 16 to 32 µg/mL (≈ 20.7 to 41.4 µM) | 16 to 32 µg/mL (≈ 20.7 to 41.4 µM)
O=C(O)c1c(F)ccc2c1OB(O)[C@@H](NC(=O)C(NC(=O)N1CCN(CCF)C(=O)C1=O)c1c(F)cc(O)c(O)c1F)C2 (stereo partly drawn) [Example 37, (3R)-3-(2-(2,6-difluoro-3,4-dihydroxyphenyl)-2-(4-(2-fluoroethyl)-2,3-dioxopiperazine-1-carboxamido)acetamido)-7-fluoro-2-hydroxy-3,4-dihydro-2H-benzo[e][1,2]oxaborinine-8-carboxylic acid] | 30 to 100 µM | 16 to 32 µg/mL (≈ 26.1 to 52.3 µM) | 16 to 32 µg/mL (≈ 26.1 to 52.3 µM) | 16 to 32 µg/mL (≈ 26.1 to 52.3 µM) | 4 to 8 µg/mL (≈ 6.53 to 13.1 µM) | > 64 µg/mL | 16 to 32 µg/mL (≈ 26.1 to 52.3 µM) | 
CCN1CCN(C(=O)NC(C(=O)N[C@H]2Cc3ccc(F)c(C(=O)O)c3OB2O)c2c(F)cc(O)c(O)c2F)C(=O)C1=O (stereo partly drawn) [Example 36, (3R)-3-(2-(2,6-difluoro-3,4-dihydroxyphenyl)-2-(4-ethyl-2,3-dioxopiperazine-1-carboxamido)acetamido)-7-fluoro-2-hydroxy-3,4-dihydro-2H-benzo[e][1,2]oxaborinine-8-carboxylic acid] | 10 to 30 µM | 16 to 32 µg/mL (≈ 26.9 to 53.8 µM) | 16 to 32 µg/mL (≈ 26.9 to 53.8 µM) | 16 to 32 µg/mL (≈ 26.9 to 53.8 µM) | 4 to 8 µg/mL (≈ 6.73 to 13.5 µM) | > 64 µg/mL | 16 to 32 µg/mL (≈ 26.9 to 53.8 µM) | 
NCCCN1CCN(C(=O)NC(C(=O)N[C@H]2Cc3cccc(C(=O)O)c3OB2O)c2ccc(C(=O)O)cc2)C(=O)C1=O (stereo partly drawn) [Example 39, (3R)-3-(2-(4-(3-aminopropyl)-2,3-dioxopiperazine-1-carboxamido)-2-(4-carboxyphenyl)acetamido)-2-hydroxy-3,4-dihydro-2H-benzo[e][1,2]oxaborinine-8-carboxylic acid] | 30 to 100 µM | 4 to 8 µg/mL (≈ 6.88 to 13.8 µM) | > 64 µg/mL | > 64 µg/mL | 1 to 2 µg/mL (≈ 1.72 to 3.44 µM) | 16 to 32 µg/mL (≈ 27.5 to 55 µM) | 4 to 8 µg/mL (≈ 6.88 to 13.8 µM) | 
CS(=O)(=O)N1CCN(C(=O)N[C@@H](C(=O)N[C@H]2Cc3ccc(F)c(C(=O)O)c3OB2O)c2c(F)cc(O)c(O)c2Cl)C1=O (single isomer, unassigned) [Example 35] | 30 to 100 µM | 16 to 32 µg/mL (≈ 25.3 to 50.6 µM) | > 64 µg/mL | > 64 µg/mL | 4 to 8 µg/mL (≈ 6.32 to 12.6 µM) | > 64 µg/mL | 16 to 32 µg/mL (≈ 25.3 to 50.6 µM) | 
O=C(O)c1ccc(C(NC(=O)c2ccc(O)c(O)c2Cl)C(=O)N[C@H]2Cc3cccc(C(=O)O)c3OB2O)cc1F (stereo partly drawn) [Example 7, (3R)-3-(2-(4-carboxy-3-fluorophenyl)-2-(2-chloro-3,4-dihydroxybenzamido)acetamido)-2-hydroxy-3,4-dihydro-2H-benzo[e][1,2]oxaborinine-8-carboxylic acid] | > 100 µM | > 64 µg/mL | > 64 µg/mL | > 64 µg/mL | 16 to 32 µg/mL (≈ 27.9 to 55.9 µM) | > 64 µg/mL | > 64 µg/mL | 
